The source of these data is patent publication US6096338A, “Delivery systems for hydrophobic drugs” (R. P. Scherer Corporation, priority 1994, dated 2000).

The solubility is the concentration that dissolves in the medium under given conditions.

Values after ≈ are worked out from the molar mass of the structure shown. Where two headings read alike, the source gives them in different places.

Series [1] in a line: Aqueous solubility of hydrophobic drugs in simulated intestinal fluid with bile and lipolytic products. The class given is physicochemical. Conditions: pH 6.5. As to the method: As stated above, the aqueous solubilities of hydrophobic drugs can be increased by incorporation into mixed micelles, formed by bile salts and lipolytic products of triglyceride oil digestion.
An aqueous medium was prepared to simulate the intestinal environment using the following components:
100 mls pH 6.5 Tris-maleate buffer solution containing:
The medium was prepared as described in the in vitro test procedure described above. To this simulated intestinal fluid a series of different components were added to evaluate the enhancement of the aqueous solubility of a range of hydrophobic drugs. The components which were added were:
Experiment (i) Nothing (control experiment)
15 mM crude ox gallbladder bile
15 mM crude ox gallbladder bile +
500 mg of medium chain lipolytic
products (137 mg capric acid, 98 mg
glyceryl monocaprate, 151 mg
caprylic acid and 114 mg glyceryl
500 mg of long chain lipolytic
products (307 mg oleic acid and
193 mg glyceryl monooleate). […]
Then 100 mg of drug, in powder form, was added to the reaction medium, the pH was adjusted to 6.5 and the medium was mixed for 21/2 hours. At this time a sample was taken from the vessel, filtered through a 0.2 micron filter and the quantity of drug in solution in the simulated intestinal fluid was determined by a specific HPLC method.

Series [2] in a line: Aqueous solubility of progesterone in buffer, bile and lipolytic products. The class given is physicochemical. Particulars: for solubility at 1 h / solubility at 2 h: pH 6.5, 37° C.; for solubility at 1 h: read-out: Progesterone solubility after 60 minutes; for solubility at 2 h: read-out: Progesterone solubility after 120 minutes. As to the method: The solubility of progesterone was determined as follows:
The following five aqueous media were each prepared at 37° C. in the pH-Stat reaction vessel. The pH of each solution was adjusted to exactly 6.50 by the addition of an appropriate volume of 1.0 molar sodium hydroxide solution. […]
pH 6.50 tris-maleate buffer solution (containing 5 mM calcium chloride and 150 mM sodium chloride) pH 6.50 tris-maleate buffer solution+15 mM ox bile pH 6.50 tris-maleate buffer solution+15 mM ox bile+0.5% hydrophilic surfactant (Cremophor RH40) pH 6.50 tris-maleate buffer solution+15 mM ox bile+medium chain lipolytic products viz 53% by weight of caprylic acid-monocaprylate (2:1 molar ratio) and 47% by weight of capric acid-monocaprate (2:1 molar ratio) […]
pH 6.50 tris maleate buffer solution+15 mM ox bile+0.5% long chain lipolytic products viz oleic acid and monoolein (2:1 molar ratio) The following procedures was performed in triplicate. 15 mls of each of the above aqueous media were added to approximately 20 mgs (excess) of progesterone in 21 ml glass vials. Each vial was whirlmixed and then maintained at 37° C. in an ultrasonic bath for 120 minutes. After 60 and 120 minutes, 3 ml of each solution were extracted for progesterone solubility determination by HPLC, using the following standard procedure:
Each sample is filtered through a 13 mm 0.2 μm PVDF syringe filter (supplied by Whatman®). The first 1.5 ml of filtrate is discarded. 0.8 ml of the remaining filtrate is combined with 0.8 ml of acetonitrile (the mobile phase) in an amber glass vial. The vial is then hermetically sealed and shaken by hand and then analysed.

Series [3] has as its system Pancreatic lipase. Description: In vitro lipolysis test (pH-stat titration) of fractionated coconut oil (FCO) with hydrophilic and lipophilic surfactants. The class given is biochemical. Conditions: FCO with Cremophor RH40 and lipophilic surfactant; FIG. 2.
Excerpt: In Vitro Test for Determining the Suitability of Hydrophilic and Lipophilic Surfactants
Pancreatic lipase in the presence of colipase catalyses the lipolysis (also termed hydrolysis or de-esterification) of emulsified oils, a process that results in the production of fatty acids. The rate of fatty acid generation, and thus a measure of the rate of lipolysis, can be followed via continuous titration with a pH-stat as described below.
The pH-stat should comprise, for example, a pH-meter, an autoburette and an autotitration unit. These instruments can be obtained from Radiometer A/S, Copenhagen, Denmark as product numbers PHM82, ABU80 and TTT80, respectively.
The reaction should be performed in a glass thermostatted vessel maintained at 37.5±0.5° C. This vessel should have an internal diameter of approximately 7.5 cm and a height of approximately 7.0 cm. During an experiment the reaction vessel should be placed beneath the titration assembly unit so that the tips of the pH-electrodes and the stirrer are all at least 1 cm beneath the liquid level. […]
At time=30 minutes, titrate the pH up to precisely 6.50 (e.g. using 1.0M NaOH using the autotitrator). Record the volume of titrant dispensed, then re-zero the titrant display reading on the autotitrator. […]
[4] abbreviates: Buffer + 15 mM ox bile + 0.5% MCLPs.

With `CC(C)(Sc1cc(C(C)(C)C)c(O)c(C(C)(C)C)c1)Sc1cc(C(C)(C)C)c(O)c(C(C)(C)C)c1` [Probucol, probucol], in series [1], the Buffer solubility result is given as “below the detection limit of assay”.
As for `CC(=O)[C@H]1CC[C@H]2[C@@H]3CCC4=CC(=O)CC[C@]4(C)[C@H]3CC[C@]12C` [Progesterone, progesterone], the “Further increase in solubility with long chain lipolytic products” value in series [2] (0.5% long chain lipolytic products, vs bile salts) is “approximately 3 fold”. Besides, the “Further increase in solubility with medium chain lipolytic products” value in series [2] (0.5% medium chain lipolytic products, vs bile salts) is given as “approximately 3 fold”. For the same compound, the solubility at 1 h in series [2] (Buffer + 15 mM bile) worked out at 46.6 ± 0.47 µg/mL; in series [2] (Buffer + 15 mM ox bile + 0.5% LCLPs) it was 153 ± 6.17 µg/mL; in series [2] (setting [4]), 136 ± 11 µg/mL; in series [2] (aqueous buffer, Buffer alone), 10.1 ± 0.25 µg/mL (≈ 32.1 µM). Besides, the solubility at 2 h was 45.5 ± 1.08 µg/mL in series [2] (Buffer + 15 mM bile); 142 ± 6.31 µg/mL in series [2] (setting [4]); 9.47 ± 1.16 µg/mL (≈ 30.1 µM) in series [2] (aqueous buffer, Buffer alone). In series [2] (bile salts vs buffer alone), the “Increase in solubility in bile salts compared to buffer alone” value is recorded as “approximately 4.5 fold”.
For `CCCCCCCC/C=C\CCCCCCCC(=O)O` [oleic acid], in series [3], the “Ability to overcome inhibitory effects of Cremophor RH40 on rate of FCO lipolysis” value is “capable of overcoming the inhibitory effects”.
